# Reference: PubChem BioAssay (NCI)
#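 Test compounds were applied to cells in 96-well plates for 48 hours at 5 doses. GI50 = concentration required for 50% inhibition of growth. Definition used: TGI = concentration required for complete inhibition of growth.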
# Legend:
# Assay in all cases: NCI-60 cell line screen, 48 h
# CCRF-CEM leukemia = test system: CCRF-CEM leukemia
# K-562 leukemia = test system: K-562 leukemia
# NCI-H522 lung = test system: NCI-H522 lung
# HL-60(TB) leukemia = test system: HL-60(TB) leukemia
# ACHN renal = test system: ACHN renal
# SK-MEL-28 melanoma = test system: SK-MEL-28 melanoma
# OVCAR-5 ovarian = test system: OVCAR-5 ovarian
# UACC-62 melanoma = test system: UACC-62 melanoma
# SN12C renal = test system: SN12C renal
# DU-145 prostate = test system: DU-145 prostate
# SF-268 CNS = test system: SF-268 CNS
# SNB-75 CNS = test system: SNB-75 CNS
# PC-3 prostate = test system: PC-3 prostate
# OVCAR-3 ovarian = test system: OVCAR-3 ovarian
# SF-295 CNS = test system: SF-295 CNS
# HOP-92 NSCLC = test system: HOP-92 NSCLC
# SF-539 CNS = test system: SF-539 CNS
# CAKI-1 renal = test system: CAKI-1 renal
# MDA-MB-231 breast = test system: MDA-MB-231 breast
# NCI-H460 lung = test system: NCI-H460 lung
# OVCAR-8 ovarian = test system: OVCAR-8 ovarian
# KM12 colon = test system: KM12 colon
# COLO 205 colon = test system: COLO 205 colon
# SK-OV-3 ovarian = test system: SK-OV-3 ovarian
# IGROV1 ovarian = test system: IGROV1 ovarian
# HCT-116 colon = test system: HCT-116 colon
# RXF 393 renal = test system: RXF 393 renal
# UACC-257 melanoma = test system: UACC-257 melanoma
# SK-MEL-5 melanoma = test system: SK-MEL-5 melanoma
# BT-549 breast = test system: BT-549 breast
# OVCAR-4 ovarian = test system: OVCAR-4 ovarian
# NCI-H226 lung = test system: NCI-H226 lung
# SR leukemia = test system: SR leukemia
# HOP-62 NSCLC = test system: HOP-62 NSCLC
# U251 CNS = test system: U251 CNS
# T-47D breast = test system: T-47D breast
# MCF7 breast = test system: MCF7 breast
# NCI-H23 lung = test system: NCI-H23 lung
# SNB-19 CNS = test system: SNB-19 CNS
# HS 578T breast = test system: HS 578T breast
# MOLT-4 leukemia = test system: MOLT-4 leukemia
# TK-10 renal = test system: TK-10 renal
# SK-MEL-2 melanoma = test system: SK-MEL-2 melanoma
# MDA-MB-435 = test system: MDA-MB-435
# A549 NSCLC = test system: A549 NSCLC
# A498 renal = test system: A498 renal
# LOX IMVI melanoma = test system: LOX IMVI melanoma
# 786-0 renal = test system: 786-0 renal
# SW-620 colon = test system: SW-620 colon
# RPMI-8226 leukemia = test system: RPMI-8226 leukemia
# M14 melanoma = test system: M14 melanoma
# NCI/ADR-RES ovarian = test system: NCI/ADR-RES ovarian
# MALME-3M melanoma = test system: MALME-3M melanoma
# UO-31 renal = test system: UO-31 renal
# EKVX NSCLC = test system: EKVX NSCLC
# HT29 colon = test system: HT29 colon
# HCT-15 colon = test system: HCT-15 colon
compound,measurement,setting,value
CC(C)(Oc1ccc(/C=C/C(=O)c2ccccc2)cc1)C(=O)Nc1c(Cl)cccc1Cl,TGI,CCRF-CEM leukemia,> 31.6 µM
same,TGI,K-562 leukemia,> 100 µM
same,TGI,NCI-H522 lung,9.86 µM
same,TGI,HL-60(TB) leukemia,23.6 µM
OC(c1cc(-c2ccc(Cl)cc2)nc2c(Cl)cccc12)C1CCCCN1 (centres undefined),GI50,ACHN renal,1.53 µM
same,TGI,ACHN renal,2.88 µM
same,GI50,SK-MEL-28 melanoma,1.76 µM
same,TGI,SK-MEL-28 melanoma,3.23 µM
same,GI50,OVCAR-5 ovarian,1.66 µM
same,TGI,OVCAR-5 ovarian,3.26 µM
same,GI50,UACC-62 melanoma,1.69 µM
same,TGI,UACC-62 melanoma,3.17 µM
same,GI50,SN12C renal,1.6 µM
same,TGI,SN12C renal,3.27 µM
same,GI50,DU-145 prostate,1.71 µM
same,TGI,DU-145 prostate,3.1 µM
same,GI50,SF-268 CNS,1.78 µM
same,TGI,SF-268 CNS,3.4 µM
same,GI50,SNB-75 CNS,1.28 µM
same,TGI,SNB-75 CNS,2.68 µM
same,GI50,PC-3 prostate,1.46 µM
same,TGI,PC-3 prostate,2.91 µM
same,GI50,OVCAR-3 ovarian,1.81 µM
same,TGI,OVCAR-3 ovarian,3.35 µM
same,GI50,SF-295 CNS,1.68 µM
same,TGI,SF-295 CNS,3.28 µM
same,GI50,HOP-92 NSCLC,1.02 µM
same,TGI,HOP-92 NSCLC,2.36 µM
same,GI50,SF-539 CNS,1.7 µM
same,TGI,SF-539 CNS,3.15 µM
same,GI50,CAKI-1 renal,1.16 µM
same,TGI,CAKI-1 renal,2.52 µM
same,GI50,MDA-MB-231 breast,1.49 µM
same,TGI,MDA-MB-231 breast,3.02 µM
same,GI50,NCI-H460 lung,1.64 µM
same,TGI,NCI-H460 lung,3.15 µM
same,GI50,OVCAR-8 ovarian,2.11 µM
same,TGI,OVCAR-8 ovarian,4.63 µM
same,GI50,KM12 colon,1.85 µM
same,TGI,KM12 colon,3.36 µM
same,GI50,COLO 205 colon,1.7 µM
same,TGI,COLO 205 colon,3.17 µM
same,GI50,SK-OV-3 ovarian,1.76 µM
same,TGI,SK-OV-3 ovarian,3.21 µM
CCOC(=O)C1=C(C)N(Cc2ccc(Cl)cc2Cl)[C@]2(C#N)C(O)=C(Cl)C(Cl)=C(O)[C@]12C#N,GI50,IGROV1 ovarian,> 100 µM
same,TGI,IGROV1 ovarian,> 100 µM
same,GI50,ACHN renal,> 100 µM
same,TGI,ACHN renal,> 100 µM
same,GI50,SK-MEL-28 melanoma,> 100 µM
same,TGI,SK-MEL-28 melanoma,> 100 µM
same,GI50,CCRF-CEM leukemia,18.4 µM
same,TGI,CCRF-CEM leukemia,37.3 µM
same,GI50,OVCAR-5 ovarian,2.7 µM
same,TGI,OVCAR-5 ovarian,31.3 µM
same,GI50,HCT-116 colon,34.7 µM
same,TGI,HCT-116 colon,> 100 µM
same,GI50,SN12C renal,73.9 µM
same,TGI,SN12C renal,> 100 µM
same,GI50,K-562 leukemia,28.1 µM
same,TGI,K-562 leukemia,57.5 µM
same,GI50,RXF 393 renal,30.6 µM
same,TGI,RXF 393 renal,89.1 µM
same,GI50,UACC-257 melanoma,> 100 µM
same,TGI,UACC-257 melanoma,> 100 µM
same,GI50,SK-MEL-5 melanoma,> 100 µM
same,TGI,SK-MEL-5 melanoma,> 100 µM
same,GI50,BT-549 breast,21.1 µM
same,TGI,BT-549 breast,> 100 µM
same,GI50,OVCAR-4 ovarian,> 100 µM
same,TGI,OVCAR-4 ovarian,> 100 µM
same,GI50,NCI-H226 lung,> 100 µM
same,TGI,NCI-H226 lung,> 100 µM
same,GI50,DU-145 prostate,16.7 µM
same,TGI,DU-145 prostate,38.7 µM
same,GI50,SR leukemia,16 µM
same,TGI,SR leukemia,38.9 µM
same,GI50,SF-268 CNS,42.1 µM
same,TGI,SF-268 CNS,> 100 µM
same,GI50,HOP-62 NSCLC,> 100 µM
same,TGI,HOP-62 NSCLC,> 100 µM
same,GI50,SNB-75 CNS,32.2 µM
same,TGI,SNB-75 CNS,86.4 µM
same,GI50,U251 CNS,44.8 µM
same,TGI,U251 CNS,> 100 µM
same,GI50,T-47D breast,31.9 µM
same,TGI,T-47D breast,78.4 µM
same,GI50,MCF7 breast,39.3 µM
same,TGI,MCF7 breast,> 100 µM
same,GI50,NCI-H23 lung,16.3 µM
same,TGI,NCI-H23 lung,80.4 µM
same,GI50,SNB-19 CNS,92.8 µM
same,TGI,SNB-19 CNS,> 100 µM
same,GI50,HS 578T breast,> 100 µM
same,TGI,HS 578T breast,> 100 µM
same,GI50,OVCAR-3 ovarian,46.7 µM
same,TGI,OVCAR-3 ovarian,> 100 µM
same,GI50,MOLT-4 leukemia,27.9 µM
same,TGI,MOLT-4 leukemia,61.6 µM
same,GI50,TK-10 renal,84.7 µM
same,TGI,TK-10 renal,> 100 µM
same,GI50,SF-295 CNS,> 100 µM
same,TGI,SF-295 CNS,> 100 µM
same,GI50,SK-MEL-2 melanoma,> 100 µM
same,TGI,SK-MEL-2 melanoma,> 100 µM
same,GI50,MDA-MB-435,> 100 µM
same,TGI,MDA-MB-435,> 100 µM
same,GI50,HOP-92 NSCLC,17.9 µM
same,TGI,HOP-92 NSCLC,44.2 µM
same,GI50,A549 NSCLC,> 100 µM
same,TGI,A549 NSCLC,> 100 µM
same,GI50,A498 renal,> 100 µM
same,TGI,A498 renal,> 100 µM
same,GI50,LOX IMVI melanoma,17.5 µM
same,TGI,LOX IMVI melanoma,35 µM
same,GI50,NCI-H522 lung,42.5 µM
same,TGI,NCI-H522 lung,> 100 µM
same,GI50,SF-539 CNS,14.2 µM
same,TGI,SF-539 CNS,33.1 µM
same,GI50,CAKI-1 renal,> 100 µM
same,TGI,CAKI-1 renal,> 100 µM
same,GI50,MDA-MB-231 breast,26.7 µM
same,TGI,MDA-MB-231 breast,98.9 µM
same,GI50,786-0 renal,> 100 µM
same,TGI,786-0 renal,> 100 µM
same,GI50,SW-620 colon,31.8 µM
same,TGI,SW-620 colon,82.9 µM
same,GI50,RPMI-8226 leukemia,21.2 µM
same,TGI,RPMI-8226 leukemia,47.3 µM
same,GI50,NCI-H460 lung,> 100 µM
same,TGI,NCI-H460 lung,> 100 µM
same,GI50,M14 melanoma,> 100 µM
same,TGI,M14 melanoma,> 100 µM
same,GI50,OVCAR-8 ovarian,73.4 µM
same,TGI,OVCAR-8 ovarian,> 100 µM
same,GI50,KM12 colon,> 100 µM
same,TGI,KM12 colon,> 100 µM
same,GI50,NCI/ADR-RES ovarian,0.19 µM
same,TGI,NCI/ADR-RES ovarian,15.6 µM
same,GI50,COLO 205 colon,> 100 µM
same,TGI,COLO 205 colon,> 100 µM
same,GI50,MALME-3M melanoma,> 100 µM
same,TGI,MALME-3M melanoma,> 100 µM
same,GI50,UO-31 renal,92 µM
same,TGI,UO-31 renal,> 100 µM
same,GI50,EKVX NSCLC,> 100 µM
same,TGI,EKVX NSCLC,> 100 µM
same,GI50,HT29 colon,> 100 µM
same,TGI,HT29 colon,> 100 µM
same,GI50,HL-60(TB) leukemia,31.9 µM
same,TGI,HL-60(TB) leukemia,76.9 µM
same,GI50,SK-OV-3 ovarian,> 100 µM
same,TGI,SK-OV-3 ovarian,> 100 µM
same,GI50,HCT-15 colon,62 µM
same,TGI,HCT-15 colon,> 100 µM
